Experimental data published in patent publication US7666891B2, “Heterocyclic antiviral compounds” (Roche Palo Alto LLC, priority 2004, dated 2010).
Where two headings read alike, the source gives them in different places.

What was measured:
[1] = Determination of pharmacokinetic parameters in rats after oral gavage; type: in vivo, rat; details: female rats; for AUC (area under concentration vs. time curve, 0–24 h): parent triazolone measured in plasma; for concentration at 2 h / concentration at 6 h: rat, plasma; for concentration at 2 h: read-out: Cp (2 h) plasma concentration; for concentration at 6 h: read-out: Cp (6 h) plasma concentration
Method: Intact female rats weighing 200-250 g were used. Groups of three or five rats were used for each dose level of an experimental compound and one rat was used as a vehicle control. Animals were allowed normal access to chow and water throughout the experiment. The test substance was formulated as an aqueous suspension containing hydroxypropyl cellulose, polysorbate 80 and benzyl alcohol adjusted to pH 3.5 with HCl or NaOH at a dose equivalent to (0.127 mmol) and was administered orally by gavage. A blood sample (0.3 mL) was collected from the treated rats at, 2, 4, 6 and 8 h from the orbital sinus and at 24 h by cardiac puncture. A sample of at least 0.3 mL of blood was withdrawn from the untreated animals 3 h after dosing. Potassium oxalate/NaF and lithium heparin were added to the samples which were stored on ice during sampling procedure. The samples were spun in a refrigerated centrifuge at […] as soon as possible and the plasma samples were stored −20° C. immediately after centrifugation and later transferred to a −80° C. freezer until analysis. Aliquots of plasma (0.05 mL) were mixed with 0.35 mL of an internal standard (and 0.05 mL of acetonitrile containing 0.1% formic acid. A set of calibration standards was prepared by mixing 0.05-mL aliquots of plasma from untreated rats with 0.05-mL aliquots of standard solution in acetonitrile containing 0.1% formic acid and 0.35-mL aliquots of the internal standard in acetonitrile containing 0.1% formic acid). Each plasma sample and calibration standard was vortexed thoroughly and then centrifuged (3000×g) at 4° C. for 20 min to precipitate the protein. Each supernatant from centrifugation was transferred into a separate injection vial for LC/MS/MS analysis.

melting point [°C]	SMILES	further results
136.6 to 141.9	Cn1c(Cc2ccc(Cl)c(Oc3cc(Cl)cc(C#N)c3)c2F)nn(COC(=O)CCC(=O)O)c1=O [Compound I-2, Succinic acid mono-{3-[4-chloro-3-(3-chloro-5-cyano-phenoxy)-2-fluoro-benzyl]-4-methyl-5-oxo-4,5-dihydro-[1,2,4]triazol-1-ylmethyl}ester]	
141.6 to 143.3	Cn1c(Cc2ccc(Cl)c(Oc3cc(C#N)cc(C#N)c3)c2F)nn(COC(=O)CCC(=O)O)c1=O [Compound I-4, Succinic acid mono-{3-[4-chloro-3-(3,5-dicyano-phenoxy)-2-fluoro-benzyl]-4-methyl-5-oxo-4,5-dihydro-[1,2,4]triazol-1-ylmethyl}ester]	
139.2 to 140.5	Cc1ccc(Cc2nn(COC(=O)CCC(=O)O)c(=O)n2C)c(F)c1Oc1cc(C#N)cc(C(F)F)c1 [Compound I-7, Succinic acid mono-{3-[3-(3-cyano-5-difluoromethyl-phenoxy)-2-fluoro-4-methyl-benzyl]-4-methyl-5-oxo-4,5-dihydro-[1,2,4]triazol-1-ylmethyl}ester]	
152.2 to 153.5	CCc1ccc(Cc2nn(COC(=O)CCC(=O)O)c(=O)n2C)c(F)c1Oc1cc(C#N)cc(C(F)F)c1 [Compound I-11, succinic acid mono-{3-[3-(3-cyano-5-difluoromethyl-phenoxy)-4-ethyl-2-fluoro-benzyl]-4-methyl-5-oxo-4,5-dihydro-[1,2,4]triazol-1-ylmethyl}ester]	

Continued, compound first:

SMILES	melting point [°C]	further results
Cn1c(Cc2ccc(Cl)c(Oc3cc(Cl)cc(C#N)c3)c2F)nn(CO)c1=O [Compound I-1]	145.8 to 149.5	
Cn1c(Cc2ccc(Cl)c(Oc3cc(C#N)cc(C#N)c3)c2F)nn(CO)c1=O [Compound I-3]	158.9 to 162.2	
Cn1c(Cc2ccc(Cl)c(Oc3cc(C#N)cc(C(F)F)c3)c2F)nn(COC(=O)CCC(=O)O)c1=O [Compound I-5, Succinic acid mono-{3-[4-chloro-3-(3-cyano-5-difluoromethyl-phenoxy)-2-fluoro-benzyl]-4-methyl-5-oxo-4,5-dihydro-[1,2,4]triazol-1-ylmethyl}ester]	150.5 to 151.1	
Cn1c(Cc2ccc(Br)c(Oc3cc(C#N)cc(C(F)F)c3)c2F)nn(COC(=O)CCC(=O)O)c1=O [Compound I-9, Succinic acid mono-{3-[4-bromo-3-(3-cyano-5-difluoromethyl-phenoxy)-2-fluoro-benzyl]-4-methyl-5-oxo-4,5-dihydro-[1,2,4]triazol-1-ylmethyl}ester]	156.7 to 158	
Cn1c(Cc2ccc(Cl)c(Oc3cc(C#N)cc(C(F)F)c3)c2F)n[nH]c1=O [parent]		AUC (area under concentration vs. time curve, 0–24 h) ([1]; dose 152 mg/kg (equimolar to I-5 200 mg/kg)): 68.8 µg·h/mL; AUC (area under concentration vs. time curve, 0–24 h) ([1]; dose 530 mg/kg (equimolar to I-5 700 mg/kg)): 85.4 µg·h/mL; concentration at 2 h ([1]; dose 152 mg/kg): 2740 ng/mL; concentration at 6 h ([1]; dose 152 mg/kg): 5020 ng/mL; concentration at 2 h ([1]; dose 530 mg/kg): 3180 ng/mL; concentration at 6 h ([1]; dose 530 mg/kg): 5970 ng/mL
